From ChEMBL document CHEMBL1158575, “Glutarimide alkaloids and a terpenoid benzoquinone from Cordia globifera” (J Nat Prod, 2010)
One block for each compound: values may come before it. The source made the active and inactive calls. The calls are words filed in the database; no cut-off is given here.

Experiments:
[1] = test system: HepG2; assay: Cytotoxicity against human HepG2 cells MTT assay; assay type: functional, cell-based
[2] = test system: MOLT-3; assay: Cytotoxicity against human MOLT3 cells XTT assay; assay type: functional, cell-based
[3] = test system: A549; assay: Cytotoxicity against human A549 cells MTT assay; assay type: functional, cell-based
[4] = test system: HuCC-A1; assay: (§1) Cytotoxicity against human HuCCa1 cells MTT assay; assay type: functional, cell-based
[5] = test system: RAW264.7; assay: Inhibition of superoxide anion radical formation in mouse RAW264.7 cells by xanthine/xanthine oxidase assay; assay type: functional, cell-based
[6] = as §1; assay type: functional, cell-based; settings: HuCC-A1
[7] = test system: HL-60; assay: Suppression of TPA-induced superoxide anion generation in differentiated human HL60 cells at 100 uM; assay type: functional

IC50 [5]: 54.1 µM
SMILES: CC(=O)N[C@H]1CCC(=O)N(CC(=O)c2ccccc2)C1=O [CORDIARIMIDE A]
Activity [1]: inactive
IC50 [2]: 145 µM
Activity [3]: inactive
Activity [4]: inactive

SMILES: C[C@@]12CC3=C(C[C@H]1[C@]1(C)C[C@@H]1C2)C(=O)C=CC3=O [GLOBIFERANE]
IC50 [1]: 149 µM
IC50 [2]: 3.7 µM
IC50 [3]: 149 µM
IC50 [6]: 66 µM

IC50 [5]: 21.7 µM
SMILES: CC(=O)N[C@H]1CCC(=O)N(C[C@H](O)c2ccccc2)C1=O [CORDIARIMIDE B]
Activity [1]: inactive
IC50 [2]: 44.5 µM
Activity [3]: inactive
Activity [4]: inactive
Activity [7]: 54%
